According to ChEMBL document CHEMBL1201862, “PubChem BioAssay data set” (2004):
Activity calls are given as the source filed them.

Assays:
[1] = biological target: DNA dC->dU-editing enzyme APOBEC-3G (Homo sapiens, UniProt Q9HC16); experiment: Dose Response confirmation of small molecule APOBEC3G DNA Deaminase Inhibitors via a fluorescence-based single-stranded DNA deaminase assay. [Related pubchem assays (depositor defined):AID493012, AID493028]; format: functional
[2] = A cytotoxicity screen of small molecule inhibitors of the PhoP region in Salmonella typhi identified in the primary screen. [Related pubchem assays: 1850, 1864, 1985 ]; format: functional
[3] = Luminescence Cell-Based Dose Confirmation HTS to Identify Inhibitors of Polyadenylation.; format: functional
[4] = Luminescence Cell-Based Dose Response to Identify Activators of 5'UTR Stem-Loop Driven Prion Protein mRNA Translation in H4-C Neuroglioblastoma Cells. [Related pubchem assays: 1829 (Project Summary), 1814 (Primary HTS)]; format: functional
[5] = Luminescence Cell-Based Dose Response HTS to Identify Activators of Luciferase Translation or Activity in H4 […] Cells. [Related pubchem assays: 1829 (Project Summary), 1814 (Primary HTS)]; format: functional
H4 = experiment: Luminescence Cell-Based Dose Response HTS to Identify Activators of 5'UTR Stem-Loop Driven Prion Protein mRNA Translation in H4 Neuroglioblastoma Cells. [Related pubchem assays: 1829 (Project Summary), 1814 (Primary HTS)]; format: functional; conditions: Homo sapiens
Vero = experiment: mammalian cell viability reduction – secondary assay, cytotoxicity control for West Nile virus antiviral project, dose response (AID 1650); format: functional; conditions: Chlorocebus sabaeus
[6] = Luminescence Cell-Based Dose Response to Identify Activators of Luciferase Translation or Activity in H4-C Neuroglioblastoma Cells. [Related pubchem assays: 1829 (Project Summary), 1814 (Primary HTS)]; format: functional
[7] = Luminescence Cell-Based Dose Confirmation to Identify Activators of 5'UTR Stem-Loop Driven Alpha-Synuclein mRNA Translation in H4 Neuroglioblastoma Cells. [Related pubchem assays: 1829 (Project Summary), 1814 (Primary HTS)]; format: functional
[8] = A Cell Based Secondary Assay To Explore Cytotoxicity of Compounds that Sensitize Mycobacterium Tuberculosis to Beta-Lactam Antibiotics.; format: functional
Aspartyl aminopeptidase = biological target: T1, Aspartyl aminopeptidase (Plasmodium falciparum 3D7, UniProt Q8I2J3)
T1 sequence (Q8I2J3 whole entry): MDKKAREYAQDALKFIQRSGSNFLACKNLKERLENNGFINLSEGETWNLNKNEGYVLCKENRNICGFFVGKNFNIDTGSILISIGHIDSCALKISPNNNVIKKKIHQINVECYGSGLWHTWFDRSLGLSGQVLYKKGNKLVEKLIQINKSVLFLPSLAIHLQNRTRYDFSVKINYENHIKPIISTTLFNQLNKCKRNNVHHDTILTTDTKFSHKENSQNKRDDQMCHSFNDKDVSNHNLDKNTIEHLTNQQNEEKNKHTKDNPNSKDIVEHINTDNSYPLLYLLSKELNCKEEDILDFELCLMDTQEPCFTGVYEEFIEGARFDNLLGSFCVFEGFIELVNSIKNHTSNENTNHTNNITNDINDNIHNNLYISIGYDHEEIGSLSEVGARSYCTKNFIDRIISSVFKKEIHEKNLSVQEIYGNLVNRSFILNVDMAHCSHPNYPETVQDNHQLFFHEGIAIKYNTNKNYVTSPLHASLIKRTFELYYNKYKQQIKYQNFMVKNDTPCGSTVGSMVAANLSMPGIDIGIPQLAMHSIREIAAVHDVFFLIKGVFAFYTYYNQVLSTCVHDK

Procathepsin L = Procathepsin L (Homo sapiens, UniProt P07711)
Sequence of Procathepsin L (P07711 whole entry): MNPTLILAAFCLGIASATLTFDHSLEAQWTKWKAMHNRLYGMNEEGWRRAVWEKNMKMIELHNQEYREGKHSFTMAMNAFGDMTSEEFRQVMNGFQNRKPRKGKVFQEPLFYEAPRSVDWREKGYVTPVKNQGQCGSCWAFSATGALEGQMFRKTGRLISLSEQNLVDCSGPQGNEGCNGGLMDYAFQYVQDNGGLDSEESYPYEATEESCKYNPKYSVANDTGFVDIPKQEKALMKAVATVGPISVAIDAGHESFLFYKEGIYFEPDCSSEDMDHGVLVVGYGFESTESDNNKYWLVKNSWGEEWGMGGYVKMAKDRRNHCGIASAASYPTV

Large T antigen = Large T antigen (Simian virus 40, UniProt P03070); format: functional, Betapolyomavirus macacae;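 further: Confirmatory-stage PubChem screen for compounds that inhibit SV40 T antigen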
Sequence of Large T antigen (P03070 whole entry): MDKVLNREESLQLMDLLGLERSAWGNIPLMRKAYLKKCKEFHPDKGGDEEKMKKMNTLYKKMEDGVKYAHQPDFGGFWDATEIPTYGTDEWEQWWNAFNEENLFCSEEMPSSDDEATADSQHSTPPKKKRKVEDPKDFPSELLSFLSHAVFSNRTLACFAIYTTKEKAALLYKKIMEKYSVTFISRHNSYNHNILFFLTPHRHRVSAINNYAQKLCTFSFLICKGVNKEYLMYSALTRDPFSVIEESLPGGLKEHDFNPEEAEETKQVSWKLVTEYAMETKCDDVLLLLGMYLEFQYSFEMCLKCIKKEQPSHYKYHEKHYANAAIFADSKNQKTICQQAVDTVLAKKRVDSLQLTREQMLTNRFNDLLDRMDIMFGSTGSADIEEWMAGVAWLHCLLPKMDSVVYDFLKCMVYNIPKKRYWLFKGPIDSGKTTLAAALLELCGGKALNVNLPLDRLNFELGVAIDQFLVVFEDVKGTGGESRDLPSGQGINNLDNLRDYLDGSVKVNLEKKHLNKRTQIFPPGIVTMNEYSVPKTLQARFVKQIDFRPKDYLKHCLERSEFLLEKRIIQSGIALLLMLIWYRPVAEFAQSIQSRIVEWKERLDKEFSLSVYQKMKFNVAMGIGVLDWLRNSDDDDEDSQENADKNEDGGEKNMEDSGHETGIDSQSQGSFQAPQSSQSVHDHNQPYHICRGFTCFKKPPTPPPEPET

[9] = biological target: Induced myeloid leukemia cell differentiation protein Mcl-1 (Homo sapiens, UniProt Q07820); format: functional
Sequence of Induced myeloid leukemia cell differentiation protein Mcl-1 (Q07820 whole entry): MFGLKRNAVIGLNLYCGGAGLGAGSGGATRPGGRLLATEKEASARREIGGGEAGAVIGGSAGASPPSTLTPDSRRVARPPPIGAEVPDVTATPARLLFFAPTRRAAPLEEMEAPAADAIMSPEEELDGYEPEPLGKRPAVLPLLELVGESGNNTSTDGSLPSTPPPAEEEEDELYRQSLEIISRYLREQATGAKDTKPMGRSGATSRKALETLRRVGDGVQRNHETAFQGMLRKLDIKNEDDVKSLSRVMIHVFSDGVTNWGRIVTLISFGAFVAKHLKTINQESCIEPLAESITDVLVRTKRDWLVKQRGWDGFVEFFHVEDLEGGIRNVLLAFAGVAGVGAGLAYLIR

[10] = viability loss in THP-1 monocytes – THP-1 cells, cytotoxicity control for Vif-APOBEC3G degradation inhibitor project, dose response (AID 1117359); format: functional; conditions: THP-1
Leucine aminopeptidase = biological target: T2, Leucine aminopeptidase (Plasmodium falciparum 3D7, UniProt Q8IL11); experiment: P. falciparum M17LAP inhibitors, primary screen, biochemical, fluorogenic H-Leu-NHMec substrate, 1536-well (AID 1619); format: functional
T2 sequence (Q8IL11 whole entry): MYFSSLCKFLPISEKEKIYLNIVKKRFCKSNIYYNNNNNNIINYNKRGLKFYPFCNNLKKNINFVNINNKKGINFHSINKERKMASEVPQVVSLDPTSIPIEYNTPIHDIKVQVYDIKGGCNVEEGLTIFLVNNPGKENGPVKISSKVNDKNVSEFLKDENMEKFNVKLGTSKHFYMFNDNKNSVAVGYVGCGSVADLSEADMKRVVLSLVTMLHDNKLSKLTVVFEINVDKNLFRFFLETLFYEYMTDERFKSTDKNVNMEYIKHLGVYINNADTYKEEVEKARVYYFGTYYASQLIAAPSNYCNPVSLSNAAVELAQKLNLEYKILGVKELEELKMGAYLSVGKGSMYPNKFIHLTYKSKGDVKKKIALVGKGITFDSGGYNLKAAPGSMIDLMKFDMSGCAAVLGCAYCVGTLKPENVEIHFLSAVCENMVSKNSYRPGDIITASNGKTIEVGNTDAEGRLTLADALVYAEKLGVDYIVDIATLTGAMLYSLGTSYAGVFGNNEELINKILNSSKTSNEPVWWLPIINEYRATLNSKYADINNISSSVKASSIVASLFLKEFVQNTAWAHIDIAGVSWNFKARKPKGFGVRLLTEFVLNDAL

Caspase-6 = biological target: T3, Caspase-6 (Homo sapiens, UniProt P55212); experiment: inhibition of CASP6 peptide cleavage – biochemical, VEID-R110 fluorescence, cherry-pick, dose response (AID 720632)
T3 sequence (P55212 whole entry): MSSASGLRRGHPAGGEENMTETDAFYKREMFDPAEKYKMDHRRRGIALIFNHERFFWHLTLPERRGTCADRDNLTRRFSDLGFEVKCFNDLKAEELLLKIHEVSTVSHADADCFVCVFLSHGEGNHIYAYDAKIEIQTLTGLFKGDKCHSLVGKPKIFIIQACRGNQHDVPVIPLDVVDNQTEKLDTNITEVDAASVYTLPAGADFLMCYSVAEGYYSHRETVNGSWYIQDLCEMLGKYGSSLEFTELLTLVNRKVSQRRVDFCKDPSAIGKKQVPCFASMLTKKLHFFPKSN

[11] = viability of PTEN-deleted HCT116 cells – cell-based, HCT116 PTEN knockout, dose response (AID 1047); format: functional;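 further: HCT116 colon tumor cells with PTEN knocked out; cells exposed to compound for 60 hours before readout; potency for loss of cell viability measured by luminescence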
[12] = viability of HCT116 lacking mutant beta-catenin – cell-based, human colon tumor, dose response (AID 1045); format: functional;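 further: HCT116 colon tumor cells with beta catenin knocked out; cells exposed to compound for 60 hours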
[13] = biological target: FAD-linked sulfhydryl oxidase ALR (Homo sapiens, UniProt P55789); experiment: ALR-catalysed DTT oxidation blockers – biochemical, H2O2 detection, luminescence, cherry-pick, dose response (AID 493248)
Sequence of FAD-linked sulfhydryl oxidase ALR (P55789 whole entry): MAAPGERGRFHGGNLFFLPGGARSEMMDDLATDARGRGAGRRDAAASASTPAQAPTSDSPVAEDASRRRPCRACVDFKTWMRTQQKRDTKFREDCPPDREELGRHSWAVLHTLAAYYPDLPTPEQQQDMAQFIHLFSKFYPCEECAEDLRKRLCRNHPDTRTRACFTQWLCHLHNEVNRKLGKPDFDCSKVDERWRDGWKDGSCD

Sequence of DNA dC->dU-editing enzyme APOBEC-3G (Q9HC16 whole entry): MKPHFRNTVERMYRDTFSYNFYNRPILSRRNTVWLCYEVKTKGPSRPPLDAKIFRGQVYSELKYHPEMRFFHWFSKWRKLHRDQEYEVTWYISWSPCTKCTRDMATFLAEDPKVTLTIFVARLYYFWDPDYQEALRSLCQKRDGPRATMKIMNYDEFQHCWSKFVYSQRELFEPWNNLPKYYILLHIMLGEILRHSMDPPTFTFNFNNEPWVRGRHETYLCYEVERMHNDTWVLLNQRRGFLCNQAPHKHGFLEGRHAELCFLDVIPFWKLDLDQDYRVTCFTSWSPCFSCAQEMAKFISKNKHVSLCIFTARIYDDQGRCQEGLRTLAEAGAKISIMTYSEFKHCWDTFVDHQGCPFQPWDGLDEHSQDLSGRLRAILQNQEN

In the case of `S=C(c1ccc(-c2ccccc2Cl)o1)N1CCOCC1`, the IC50 [1] is reported as 44.6 µM (active).
In the case of `O=C1CC(c2ccc(Cl)cc2)N2CCNC2=C1C(=O)Nc1ccccc1` (stereo not given), the EC50 [2] is reported as > 50 µM (active).
With `CC(NC(=O)c1ccc(Br)cc1)c1ccccc1` (stereo not given) the EC50 [3] was > 120 µM (not active).
With `O=C(COC(=O)Cc1ccc(S(=O)(=O)N2CCOCC2)s1)Nc1ccc2c(c1)OCO2` the EC50 [3] was > 120 µM (not active).
For `CCn1c(=N)n(CC(=O)c2ccc(Cl)c(Cl)c2)c2ccccc21`, the EC50 [4] was 0.771 µM (active), the EC50 [5] was < 0.1 µM (active) and the EC50 (H4) was > 120 µM (not active). For the same molecule, the CC50 (Vero) was 15.5 µM (active), the EC50 [6] was 0.474 µM (active) and the EC50 [7] was 1.18 µM (active).
For `COc1ccc([N+](=O)[O-])cc1C1NN=C(c2ccccc2O)S1` (stereo not given), the CC50 [8] was > 40 µM (active).
In the case of `CC12CC[C@H]3[C@@H](CCC4(O)C[C@H](O)CCC34/C=N/NC(=O)c3ccccc3O)C1(O)CCC2C1=CC(=O)OC1` (stereo not given in full), the CC50 (Vero) is reported as 22.2 µM (active).
In the case of `O=C(NNC(=S)NC1CC2C=CC1C2)c1cccnc1` (stereo not given), the EC50 [3] is reported as > 120 µM (not active).
For `O=[N+]([O-])c1cc([N+](=O)[O-])c2cccnc2c1Oc1ccccc1O`, the EC50 [2] was > 50 µM (active), the IC50 (Aspartyl aminopeptidase) was 3.27 µM (active) and the IC50 (Procathepsin L) was > 59.6 µM (not active). For the same molecule, the IC50 (Large T antigen) was 7.81 µM (active) and the IC50 [9] was 2.82 µM (active).
In the case of `CCN1CCN(C(=O)c2cc3cc(Cl)ccc3[nH]2)CC1`, the EC50 [2] is reported as > 50 µM (active).
With `CCNS(=O)(=O)c1ccc(-c2ccc(-n3cnnn3)cc2)cc1` the CC50 [10] was > 40 µM (active).
For `O=C(O)CCC(=O)Nc1sc2c(c1C(=O)Nc1ccccc1)CCCCC2`, the IC50 (Leucine aminopeptidase) was 47 µM (active) and the AC50 (Caspase-6) was 45 µM (active).
In the case of `COc1cc(/C=C/C(=O)c2ccc(O)cc2)ccc1OCC#N`, the CC50 (Vero) is reported as 31.9 µM (active), the EC50 [11] is reported as 2.34 µM (active) and the EC50 [12] is reported as 1.93 µM (active).
For `CCN(CCCNC(=O)C1CCCN(S(=O)(=O)CC)C1)c1cccc(C)c1` (stereo not given), the CC50 [10] was > 40 µM (active).
In the case of `COCCCN=C(S)NN=C(S)Nc1ccccc1`, the IC50 [1] is reported as 16.4 µM (active).
In the case of `Cc1ccc(OCC(=O)Nc2ccc3c4c(cccc24)CC3)c(C)c1`, the CC50 [8] is reported as > 40 µM (active).
For `C=CCn1c(S)nnc1-c1cccc([N+](=O)[O-])c1`, the IC50 [1] was 8.72 µM (active) and the AC50 [13] was 9.06 µM (active).
